{"source": "paper PMC4644980", "about": "“The FDA-approved natural product dihydroergocristine reduces the production of the Alzheimer’s disease amyloid-β peptides” (Scientific Reports, 2015)", "key": {"[1]": {"test_system": "γ-secretase (APP-CTF processing) in HEK293 cells", "experiment": "Western blot of endogenous APP-FL and APP-CTF in HEK293 cells", "assay_type": "cell-based", "conditions": "24 h", "quoted_text": "(§3) The levels of β-actin were used as equal loading controls. […] The levels of β-actin served as equal loading controls.\n(§4) Western Blot analysis of full-length APP, APP-CTFs, Notch1-NICD and γ-secretase components was carried out according to the procedures described in the Supplementary information[31]."}, "[2]": {"test_system": "Aβ production in HEK293 cells", "experiment": "Aβ total ELISA of media from HEK293 cells", "assay_type": "cell-based", "procedure": "(§1) The levels of β-actin were used as equal loading controls. […] The Aβ data are expressed as a percentage of the control value and presented as the means ± sd. […] Fibroblast cells from an AD patient carrying the PS1 missense mutation A246E were treated with various compounds, and the levels of APP-FL, APP-CTF and β-actin, as well as Aβ, were measured as described above. The Aβ data are expressed as a percentage of the control value and presented as the means ± sd. (n = 3). […] The levels of β-actin served as equal loading controls. The densitometric quantifications for the Western Blots are shown in Supplementary Fig. S2. For full blots, please see Supplementary Fig. S9.\n(§2) Aβ1-x peptides secreted in the cell media were quantitatively measured by ELISA (IBL, Gunma, Japan) according to the standard protocol from the manufacturer. Aβ40 and Aβ42 generated in the C100-Flag γ-secretase assays stopped with 0.5% SDS (final concentration) were quantified with the human Beta Amyloid or [1–42] colorimetric ELISA kit, respectively."}, "[3]": {"test_system": "endogenous γ-secretase in fibroblast cells from an AD patient", "experiment": "Western blot of APP-CTF in fibroblast cells from an AD patient (PS1 A246E)", "assay_type": "cell-based, human", "conditions": "dose series", "quoted_text": "Fibroblast cells from an AD patient carrying the PS1 missense mutation A246E were treated with various compounds, and the levels of APP-FL, APP-CTF and β-actin, as well as Aβ, were measured as described above. […] (n = 3). […] The levels of β-actin served as equal loading controls.\nas §4"}, "[4]": {"test_system": "Aβ production in fibroblast cells from an AD patient", "experiment": "Aβ total ELISA of media from fibroblast cells from an AD patient (PS1 A246E)", "assay_type": "cell-based, human", "procedure": "as §1, §2"}, "[5]": {"test_system": "human Notch1 extracellular truncation (NEXT) cleavage by γ-secretase", "experiment": "cleavage of human Notch1 NEXT (NICD Western blot) in HEK293 cells", "assay_type": "cell-based", "quoted_text": "as §3, §4"}, "[6]": {"test_system": "γ-secretase subunits (mNCT, PS1-NTF)", "experiment": "Western blot of γ-secretase subunits in HEK293 or fibroblast cells", "assay_type": "cell-based", "procedure": "for 10 min before adding 25 µl of the stop solution. The fluorescence was monitored with a microplate reader (emission at 590 nm after excitation at 560 nm).\nWestern blot and antibodies\nWT HEK293 or fibroblast cells were collected and lysed in 1% Nonidet P-40-HEPES buffer, and equal amounts of proteins [normalized by BCA (Pierce)] were separated by SDS-PAGE onto a 12% Tris-glycine gel, transferred onto a PVDF membrane (Bio-Rad, USA) and further probed with antibody CT15 (for APP/APP-CTFs, 1:2000, […]\n(1:1000; Abcam, Cambridge, MA, USA) for PS1-NTF, UD-1 (for Pen-2, 1:500; a gift of Dr. Helena Karlström, Karolinska Institute, Sweden), NCT164 (for NCT, 1:1000; BD Bioscience, Bedford, MA, USA) as well as with an antibody for β-actin (1:2000, Abmart). For the analysis of Notch NICD, cell extracts were separated by SDS-PAGE onto a 10% Tris-glycine gel, transferred onto a PVDF membrane and blotted for NICD with an anti-Notch Ab1744 antibody (for the free N-terminus of NICD, 1:500, Cell Signaling Technology, Beverly, MA, USA).\nSamples from in vitro γ-secretase activity assays were run on 16% Tricine-SDS-PAGE gels and transferred onto PVDF to detect Aβ and AICD-Flag with 6E10 (1:1000, Covance, Berkeley, CA, USA) and CT15 antibodies (1:5000, Sigma-Aldrich), […]"}, "γ-secretase": {"target": "γ-secretase (Homo sapiens, UniProt P49768+Q92542)", "experiment": "cell-based luciferase reporter assay for γ-secretase inhibition (T100 cells)", "design": "endogenous in cells; host or cells: T-REx HeLa cells (T100) stably transfected with the substrate C99-Gal4-VP16 and a luciferase reporter", "conditions": "24 h, read-out: IC50, inhibition of APP-C99 processing", "procedure": "To identify natural product-based bioactive inhibitors of γ-secretase, we screened 417 natural products by using a cell-based luciferase reporter assay for γ-secretase inhibition (T100, see Methods), which we recently developed in TREx HeLa cells according to the methodology described in ref. [17]. […] Thus, this assay is sufficiently sensitive to detect the inhibitory effects of 100 nM DAPT on cellular γ-secretase activity. Additionally, this new cell-based assay tolerated up to 2% DMSO, which is a great advantage when screening inhibitors in a high-throughput format.\nT-REx-HeLa cells (T100) stably overexpressing C99-Gal4-VP16 and luciferase were generated according to the method described in refs [17],[30]. For details, see Supplementary Information.\nCell-based γ-secretase assays were performed using the T100 cell line according to the methods detailed in ref. [30] (for details, see Supplementary information). […]\nconcentrations of substrate at 37 °C for 4 h, after which the enzymatic reactions were stopped by adding 0.5% SDS (final concentration). The samples were analyzed by Western Blot for AICD-Flag or Aβ. […]"}}}
{"compound": "C[C@H](NC(=O)Cc1cc(F)cc(F)c1)C(=O)N[C@H](C(=O)OC(C)(C)C)c1ccccc1", "note": "[DAPT, N-[N-(3,5-difluorophenylacetyl)-L-alanyl-]-(S)-phenylglycine-t-butyl ester]", "values": [{"measurement": "accumulation of the carboxy-terminal fragments of APP (APP-CTFs)", "setting": "[1]", "value": "dose-dependent accumulation"}, {"measurement": "total Aβ levels", "setting": "[2]", "value": "markedly reduced"}, {"measurement": "accumulation of APP-CTFs", "setting": "[3]", "value": "dose-dependent accumulation"}, {"measurement": "total Aβ levels", "setting": "[4]", "value": "markedly reduced"}, {"measurement": "preference for APP-based versus Notch-based substrate", "setting": "[5]; HEK293 cells overexpressing hAPP or Notch1-NEXT", "value": "showed no preference"}, {"measurement": "production of intracellular human NICD", "setting": "[5]; HEK293 cells overexpressing human NEXT, 1 μM", "value": "completely blocked"}, {"measurement": "assembly and maturation of the protease complex (mNCT, PS1-NTF)", "setting": "[6]", "value": "not altered"}, {"measurement": "IC50", "setting": "γ-secretase", "value": "~200", "unit": "nM"}]}
